Data taken from patent publication US10059676B2, “Process for preparing a novel crystalline form of iodosulfuron-methyl-sodium and use of the same” (ROTAM AGROCHEM INTERNATIONAL COMPANY LIMITED, priority 2015, dated 2018).

Assay: Stability test: accelerated storage of formulations, relative percentage of hydrolysis (RPH) by HPLC (CIPAC MT 46.3)
Assay type: physicochemical
Conditions: for stability (hydrolysis), in words: general statement, in water, on storage, in formulations; for RPH % (relative percentage of hydrolysis): stored at 54° C. for 1 week
Method: The stability of the iodosulfuron-methyl-sodium in these compositions was determined by aging samples in heated ovens having the same atmosphere therein, and then comparing the iodosulfuron-methyl-sodium content before and after the aging to determine relative percentage of hydrolysis (RPH). RPH was calculated by the following equation: […]
Iodosulfuron-methyl-sodium content was determined by assaying the compositions with high-pressure liquid chromatography (HPLC) using reverse phase columns and eluants.
Samples prepared in Examples 4, 5 and 6 were stored at 54° C. for 1 week. The procedures are followed according to CIPAC MT 46.3. The concentration of iodosulfuron-methyl-sodium was measured at the end of each storage time by HPLC.

[1] = oil based suspension concentrate (OD) of Example 4, 40 wt% iodosulfuron-methyl-sodium
[2] = soluble granules (SG) of Example 5, 25 wt% iodosulfuron-methyl-sodium
[3] = water dispersible granules (WG) of Example 6, 25 wt% iodosulfuron-methyl-sodium

Row | stability (hydrolysis), in words (listed as iodosulfuron-methyl-sodium in the amorphous state) | RPH % (relative percentage of hydrolysis) [1] | RPH % (relative percentage of hydrolysis) [2] | RPH % (relative percentage of hydrolysis) [3] | stability (hydrolysis), in words (listed as crystalline modification I of iodosulfuron-methyl-sodium) | SMILES
1 | highly unstable | 49% | 42% | 40% |  | COC(=O)c1ccc(I)cc1S(=O)(=O)NC(=O)[N-]c1nc(C)nc(OC)n1.[Na+] [Amorphous iodosulfuron-methyl-sodium, sodium salt of methyl 4-iodo-2-[[[[(4-methoxy-6-methyl-1,3,5-triazin-2-yl)amino]carbonyl]amino]sulfonyl]benzoate]
2 |  | 0% | 0% | 0% | significant increase in its stability | COC(=O)c1ccc(I)cc1S(=O)(=O)NC(=O)[N-]c1nc(C)nc(OC)n1.[Na+] [Iodosulfuron-methyl-sodium, crystalline modification I] [sodium salt of methyl 4-iodo-2-[[[[(4-methoxy-6-methyl-1,3,5-triazin-2-yl)amino]carbonyl]amino]sulfonyl]benzoate]
